Experimental data: patent US20080260716A1, “Method and Composition for High Level Disinfection Employing Quaternary Ammonium Compounds” (priority 2004, published 2008)

Columns and labels:
[1] = system: C. sporogens spores; test: AOAC sporicidal test, kill time; type: cell-based; conditions: for C. sporogens (no kill): 48 hrs
[2] = system: Mycobacterium terrae; test: AOAC tuberculocidal test, kill time; type: cell-based
Excerpt: These standards are based on the known or possible risk of contamination of a particular medical device by a particular micro-organism, the pathogenic nature of the organism and other principles in infection control. […] The test panels and criteria are different for “low”, “intermediate” or “high-level disinfection”. These terms are herein used in accordance with current Food and Drug Administration (“FDA”) criteria for levels of disinfection which are detailed in Premarket Notification [510(k)] Submissions for Liquid Chemical Sterilants and High Level Disinfectants FDA 1997: “A germicide that inactivates all microbial pathogens except large number of bacterial endospores when used according to labelling”. In brief, the FDA regulatory requirement for high level disinfectants includes as the most challenging test a 100% kill of Mycobacterium tuberculosis var. bovis (or a specific strain of a suitable surrogate, such as Mycobacterium terrae) in 400 p.p.m. hard water in the presence of 2% horse serum in a quantitative tuberculocidal test.
In the following tables unless otherwise specified references to “kill time” mean the time required to achieve complete kill as defined in the relevant AOAC test (more particularly identified in annexure 1). “No kill” means less than 2 log reduction from the initial population. Unless otherwise specified “QUAT” is benzalkonium chloride, specifically Gardiquat NC-50 (Albright & Wilson). Test points for vegetative bacteria (M. terrae) were 2, 5, 10, 20 and 60 mins. Test points for spores were 0.5, 1, 2, 4, 16, 24, 48 hours. The last column in each table indicates whether the tested combination satisfies the FDA requirement for high level disinfection (“HLD”) or fails to do so (“F”).
AOAC tests for determination of High level Disinfection as defined in current FDA criteria (detailed in “Premarket Notification [510(k)] Submissions for Liquid Chemical Sterilants and High Level Disinfectants FDA 1993”.):
AOAC Tuberculocidal Activity of Disinfectants
AOAC Ref No 965.12, AOAC Official Methods of Analysis (1995)

[3] = Table 3 Prior art, 0.25% QUAT, 25° C.
[4] = Table 6 unnumbered test, 2% QUAT + 0.2% Protease (Savinase 16 L), 25° C. + 1% borax
[5] = test 3.4, 0.25% QUAT, 62° C. + ultrasound
[6] = test 4.1, 2% QUAT, 25° C. + 1% borax
[7] = test 4.2, 5% QUAT, 25° C. + 1% borax
[8] = test 4.3, 1% QUAT, 40° C. + 1% borax
[9] = test 4.4, 2% QUAT, 40° C. + 1% borax
[10] = test 4.5, 5% QUAT, 40° C. + 1% borax
[11] = test 4.6, 2% QUAT, 50° C. + 1% borax
[12] = test 4.7, 5% QUAT, 50° C. + 1% borax
[13] = test 5.1, 1% QUAT, 40° C. + ultrasound 10 min each hour
[14] = test 5.2, 2% QUAT, 40° C. + ultrasound 10 min each hour
[15] = test 5.3, 5% QUAT, 40° C. + ultrasound 10 min each hour
[16] = test 5.4, 1% QUAT, 40° C. + ultrasound 10 min each hour
[17] = test 5.5, 2% QUAT + 1% borax, 40° C. + ultrasound 10 min each hour
[18] = test 5.6, 5% QUAT + 1% borax, 40° C. + ultrasound 10 min each hour
[19] = test 5.7, 2% QUAT + 1% borax + Protease, 40° C. + ultrasound 10 min each hour
[20] = test 6.1, 2% QUAT + 0.2% Protease (Savinase 16 L), 25° C.
[21] = test 6.2, 2% QUAT + 0.2% Protease (Savinase 16 L), 40° C.
[22] = test 6.3, 2% QUAT + 0.2% Protease (Savinase 16 L), 40° C. + 1% borax
[23] = test 6.4, 2% QUAT + 0.2% Protease (Savinase 16 L), 50° C.
[24] = test 6.5, 2% QUAT + 0.2% Protease (Savinase 16 L), 50° C. + 1% borax
[25] = test 6.6, 2% QUAT + 0.2% Protease (Savinase 16 L), 40° C. + ultrasound 10 min each hour + 1% borax
[26] = test 6.7, 2% QUAT + 1% borax + Protease, 40° C. + ultrasound 10 min each hour

Substance: benzalkonium chloride [QUAT]
- Kill Time C. sporogens [1, 3]: >24 h
- Kill Time C. sporogens [1, 4]: >48 h
- C. sporogens (no kill) [1, 4]: (no kill) (“No kill” means less than 2 log reduction from the initial population)
- kill time of C. sporogenes ([1]; above 1% w/w of quat, 40° C.): less than 2 hours
- Kill Time C. sporogens ([1]; test 1.1, 0.025% QUAT, 25° C.): >24 h
- Kill Time C. sporogens ([1]; test 1.2, 0.25% QUAT, 25° C.): >24 h
- Kill Time C. sporogens ([1]; test 2.1, 5% QUAT, 30° C.): <2 h
- Kill Time C. sporogens ([1]; test 2.2, 1.0% QUAT, 40° C.): <2 h
- Kill Time C. sporogens ([1]; test 2.3, 2.0% QUAT, 40° C.): <2 h
- Kill Time C. sporogens ([1]; test 2.4, 5.0% QUAT, 40° C.): <1 h
- Kill Time C. sporogens ([1]; test 2.5, 1.0% QUAT, 50° C.): <2 h
- Kill Time C. sporogens ([1]; test 2.6, 2.0% QUAT, 50° C.): <2 h
- Kill Time C. sporogens ([1]; test 2.7, 5.0% QUAT, 50° C.): <1 h
- Kill Time C. sporogens ([1]; test 2.7, 5.0% QUAT, 50° C., listed as quat): less than one hour
- Kill Time C. sporogens ([1]; test 2.8, 1.0% QUAT, 80° C.): <1 h
- Kill Time C. sporogens ([1]; test 2.8, 1.0% QUAT, 80° C., listed as quat): less than one hour
- Kill Time C. sporogens ([1]; test 3.1, 0.25% QUAT, 40° C.): >24 h
- Kill Time C. sporogens ([1]; test 3.2, 0.25% QUAT, 50° C.): >24 h
- Kill Time C. sporogens ([1]; test 3.3, 0.25% QUAT, 60° C.): >24 h
- Kill Time C. sporogens [1, 5]: >24 h
- Kill Time C. sporogens ([1]; test 3.5, 1.0% QUAT, 25° C.): >48 h
- C. sporogens (no kill) ([1]; test 3.5, 1.0% QUAT, 25° C.): (no kill) (“No kill” means less than 2 log reduction from the initial population)
- Kill Time C. sporogens ([1]; test 3.6, 2.0% QUAT, 25° C.): >48 h
- C. sporogens (no kill) ([1]; test 3.6, 2.0% QUAT, 25° C.): (no kill) (“No kill” means less than 2 log reduction from the initial population)
- Kill Time C. sporogens ([1]; test 3.7, 5.0% QUAT, 25° C.): >48 h
- C. sporogens (no kill) ([1]; test 3.7, 5.0% QUAT, 25° C.): (no kill) (“No kill” means less than 2 log reduction from the initial population)
- Kill Time C. sporogens ([1]; test 3.8, 0.6%, 40° C.): >24 h
- Kill Time C. sporogens ([1]; test 3.9, 0.6% QUAT, 50° C.): <16 h
- Kill Time C. sporogens [1, 6]: >48 h
- C. sporogens (no kill) [1, 6]: (no kill) (“No kill” means less than 2 log reduction from the initial population)
- Kill Time C. sporogens [1, 7]: >48 h
- C. sporogens (no kill) [1, 7]: (no kill) (“No kill” means less than 2 log reduction from the initial population)
- Kill Time C. sporogens [1, 8]: <1 h
- Kill Time C. sporogens [1, 9]: <1 h
- Kill Time C. sporogens [1, 10]: <1 h
- Kill Time C. sporogens [1, 11]: <1 h
- Kill Time C. sporogens [1, 12]: <1 h
- Kill Time C. sporogens [1, 13]: <2 h
- Kill Time C. sporogens [1, 14]: <1 h
- Kill Time C. sporogens [1, 15]: <1 h
- Kill Time C. sporogens [1, 16]: <1 h
- Kill Time C. sporogens [1, 17]: <1 h
- Kill Time C. sporogens [1, 18]: <1 h
- Kill Time C. sporogens [1, 19]: <1 h
- Kill Time C. sporogens [1, 20]: >48 h
- C. sporogens (no kill) [1, 20]: (no kill) (“No kill” means less than 2 log reduction from the initial population)
- Kill Time C. sporogens [1, 21]: <1 h
- Kill Time C. sporogens [1, 22]: <1 h
- Kill Time C. sporogens [1, 23]: <1 h
- Kill Time C. sporogens [1, 24]: <1 h
- Kill Time C. sporogens [1, 25]: <1 h
- Kill Time C. sporogens [1, 26]: <1 h
- Kill Time M. terrae [2, 3]: >60 min
- Kill Time M. terrae [2, 4]: >60 min
- kill time of Mycobacterium terrae ([2]; above 1% w/w of quat, 40° C.): less than 5 mins
- Kill Time Mycobacterium terrae ([2]; test 1.1, 0.025% QUAT, 25° C.): >60 min
- Kill Time Mycobacterium terrae ([2]; test 1.2, 0.25% QUAT, 25° C.): >60 min
- Kill Time Mycobacterium terrae ([2]; test 2.1, 5% QUAT, 30° C.): <5 min
- Kill Time Mycobacterium terrae ([2]; test 2.2, 1.0% QUAT, 40° C.): <5 min
- Kill Time Mycobacterium terrae ([2]; test 2.3, 2.0% QUAT, 40° C.): <5 min
- Kill Time Mycobacterium terrae ([2]; test 2.4, 5.0% QUAT, 40° C.): <5 min
- Kill Time Mycobacterium terrae ([2]; test 2.5, 1.0% QUAT, 50° C.): <5 min
- Kill Time Mycobacterium terrae ([2]; test 2.6, 2.0% QUAT, 50° C.): <5 min
- Kill Time Mycobacterium terrae ([2]; test 2.7, 5.0% QUAT, 50° C.): <5 min
- Kill Time Mycobacterium terrae ([2]; test 2.8, 1.0% QUAT, 80° C.): <5 min
- Kill Time M. terrae ([2]; test 3.1, 0.25% QUAT, 40° C.): >60 min
- Kill Time M. terrae ([2]; test 3.2, 0.25% QUAT, 50° C.): >60 min
- Kill Time M. terrae ([2]; test 3.3, 0.25% QUAT, 60° C.): >60 min
- Kill Time M. terrae [2, 5]: >60 min
- Kill Time M. terrae ([2]; test 3.5, 1.0% QUAT, 25° C.): >60 min
- Kill Time M. terrae ([2]; test 3.6, 2.0% QUAT, 25° C.): >60 min
- Kill Time M. terrae ([2]; test 3.7, 5.0% QUAT, 25° C.): >60 min
- Kill Time M. terrae ([2]; test 3.8, 0.6%, 40° C.): >60 min
- Kill Time M. terrae ([2]; test 3.9, 0.6% QUAT, 50° C.): >20 min
- Kill Time M. terrae [2, 6]: >60 min
- Kill Time M. terrae [2, 7]: >60 min
- Kill Time M. terrae [2, 8]: <5 min
- Kill Time M. terrae [2, 9]: <2 min
- Kill Time M. terrae [2, 10]: <2 min
- Kill Time M. terrae [2, 11]: <2 min
- Kill Time M. terrae [2, 12]: <2 min
- Kill Time M. terrae [2, 13]: <5 min
- Kill Time M. terrae [2, 14]: <5 min
- Kill Time M. terrae [2, 15]: <5 min
- Kill Time M. terrae [2, 16]: <5 min
- Kill Time M. terrae [2, 17]: <2 min
- Kill Time M. terrae [2, 18]: <2 min
- Kill Time M. terrae [2, 19]: <2 min
- Kill Time M. terrae [2, 20]: >60 min
- Kill Time M. terrae [2, 21]: <5 min
- Kill Time M. terrae [2, 22]: <2 min
- Kill Time M. terrae [2, 23]: <5 min
- Kill Time M. terrae [2, 24]: <2 min
- Kill Time M. terrae [2, 25]: <2 min
- Kill Time M. terrae [2, 26]: <2 min
